Target: BcRtt109-GST (Botrytis cinerea, UniProt A0A384J919)
Assay: in vitro acetylation of BcTol1-His6, immunoblot with anti-K122ac
Format: biochemical
Conditions: 0.2 mM acetyl-CoA; acceptor BcTol1-His6; 50 mM Tris-HCl pH 8.0, 37 °C, 1 h

Sequence of BcRtt109-GST (A0A384J919 entry or part of it): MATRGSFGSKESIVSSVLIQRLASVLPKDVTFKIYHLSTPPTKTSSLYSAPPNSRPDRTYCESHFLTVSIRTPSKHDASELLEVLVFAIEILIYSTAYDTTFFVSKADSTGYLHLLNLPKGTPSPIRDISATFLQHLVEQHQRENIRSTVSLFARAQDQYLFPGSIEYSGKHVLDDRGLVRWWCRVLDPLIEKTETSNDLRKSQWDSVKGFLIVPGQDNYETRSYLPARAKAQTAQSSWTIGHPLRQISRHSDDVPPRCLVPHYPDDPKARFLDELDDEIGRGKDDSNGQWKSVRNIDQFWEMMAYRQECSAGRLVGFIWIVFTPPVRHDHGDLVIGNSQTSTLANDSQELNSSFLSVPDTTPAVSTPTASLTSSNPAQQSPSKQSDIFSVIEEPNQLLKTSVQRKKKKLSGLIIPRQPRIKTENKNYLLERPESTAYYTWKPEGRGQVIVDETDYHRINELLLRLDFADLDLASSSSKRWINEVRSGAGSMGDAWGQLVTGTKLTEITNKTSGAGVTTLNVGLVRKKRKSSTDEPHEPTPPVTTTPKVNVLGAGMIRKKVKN

CC(=O)SCCNC(=O)CCNC(=O)[C@H](O)C(C)(C)COP(=O)(O)OP(=O)(O)OC[C@H]1O[C@@H](n2cnc3c(N)ncnc32)[C@H](O)[C@@H]1OP(=O)(O)O [acetyl-CoA]
in vitro acetylation of BcTol1-His6, immunoblot with anti-K122ac: purified BcRtt109-GST, but not GST itself, acetylates WT BcTol1 effectively in vitro

— PMC7613639, “Broad-spectrum chemicals block ROS detoxification to prevent plant fungal invasion” (Current biology : CB, 2022)
